Results published in the supplement of paper PMC13380429.

Experiments:
Conditions in all cases: 72 h
Calu-3 [1] = assay: drug sensitivity score (DSS) for viability; higher = more toxic; extreme values may be limits of the assay
Vero E6 [2] = assay: as above
U2OS [3] = assay: as above
HepG2 [4] = assay: as above
Caco-2 [5] = assay: as above
Calu-3 [6] = assay: relative viability EC50 (midpoint between 100% and the lowest measured viability); higher = less toxic
Vero E6 [7] = assay: as above
U2OS [8] = assay: as above
HepG2 [9] = assay: as above
Caco-2 [10] = assay: as above
Calu-3 [11] = assay: cell viability relative to DMSO; higher = less toxic
Vero E6 [12] = assay: as above
U2OS [13] = assay: as above
HepG2 [14] = assay: as above
Caco-2 [15] = assay: as above

| Compound | drug sensitivity score (Calu-3 [1]) | drug sensitivity score (Vero E6 [2]) | drug sensitivity score (U2OS [3]) | drug sensitivity score (HepG2 [4]) | drug sensitivity score (Caco-2 [5]) | relative viability EC50 (Calu-3 [6]) [µM] | relative viability EC50 (Vero E6 [7]) [µM] | relative viability EC50 (U2OS [8]) [µM] | relative viability EC50 (HepG2 [9]) [µM] | relative viability EC50 (Caco-2 [10]) [µM] | cell viability (Calu-3 [11]; 1 nM) [%] | cell viability (Calu-3 [11]; 10 nM) [%] | cell viability (Calu-3 [11]; 100 nM) [%] | cell viability (Calu-3 [11]; 1000 nM) [%] | cell viability (Calu-3 [11]; 10000 nM) [%] | cell viability (Vero E6 [12]; 1 nM) [%] | cell viability (Vero E6 [12]; 10 nM) [%] | cell viability (Vero E6 [12]; 100 nM) [%] | cell viability (Vero E6 [12]; 1000 nM) [%] | cell viability (Vero E6 [12]; 10000 nM) [%] | cell viability (U2OS [13]; 1 nM) [%] | cell viability (U2OS [13]; 10 nM) [%] | cell viability (U2OS [13]; 100 nM) [%] | cell viability (U2OS [13]; 1000 nM) [%] | cell viability (U2OS [13]; 10000 nM) [%] | cell viability (HepG2 [14]; 1 nM) [%] | cell viability (HepG2 [14]; 10 nM) [%] | cell viability (HepG2 [14]; 100 nM) [%] | cell viability (HepG2 [14]; 1000 nM) [%] | cell viability (HepG2 [14]; 10000 nM) [%] | cell viability (Caco-2 [15]; 1 nM) [%] | cell viability (Caco-2 [15]; 10 nM) [%] | cell viability (Caco-2 [15]; 100 nM) [%] | cell viability (Caco-2 [15]; 1000 nM) [%] | cell viability (Caco-2 [15]; 10000 nM) [%] |
| --- | --- | --- | --- | --- | --- | --- | --- | --- | --- | --- | --- | --- | --- | --- | --- | --- | --- | --- | --- | --- | --- | --- | --- | --- | --- | --- | --- | --- | --- | --- | --- | --- | --- | --- | --- |
| C=C[C@@H]1C[C@]1(NC(=O)[C@@H]1C[C@@H]2CN1C(=O)[C@H](C(C)(C)C)NC(=O)O[C@@H]1C[C@H]1CCCCCc1nc3ccc(OC)cc3nc1O2)C(=O)NS(=O)(=O)C1CC1 [grazoprevir] | 0 | 0 | 0 | 0 | 1.2 | > 10 | > 10 | > 10 | > 10 | > 10 | 103 | 107 | 105 | 94.7 | 103 | 96.3 | 98.3 | 97.1 | 95.3 | 103 | 93 | 100 | 96 | 91.6 | 90.4 | 106 | 92.5 | 99.6 | 103 | 106 | 101 | 98.5 | 105 | 93.9 | 80.8 |
| O=C(NCCO)c1cc(C(=O)NCCO)cc(C(=O)NCCO)c1 [LM-22A4] | 0 | 0 | 0 | 0 | 0 | > 10 | > 10 | > 10 | > 10 | > 10 | 104 | 105 | 97 | 102 | 91.9 | 105 | 98.3 | 106 | 98.4 | 105 | 94.6 | 97.7 | 96.1 | 99.5 | 93.5 | 104 | 103 | 101 | 97.5 | 102 | 96.8 | 96.1 | 97.3 | 99.2 | 100 |
| C=CCOc1ccccc1OCC(O)CNC(C)C (stereo not given) [oxprenolol] | 0 | 0 | 0 | 0 | 0 | > 10 | > 10 | > 10 | > 10 | > 10 | 111 | 90.8 | 108 | 93.2 | 103 | 98.6 | 104 | 102 | 106 | 98.6 | 106 | 97.7 | 99.8 | 101 | 102 | 97.4 | 97.8 | 93.3 | 113 | 107 | 102 | 91.5 | 98 | 91.2 | 97.9 |
